Patent US20150087616A1, “PREBIOTIC FORMULATIONS AND METHODS OF USE” (RITTER PHARMACEUTICALS, INC., priority 2011, published 2015)

System: Bifidobacterium species
Assay: Comparative growth of Bifidobacterium species in scratch MRS with 2% carbohydrate
Type: cell-based
Conditions: five (four) Bifidobacterium species; scratch MRS + 2% carbohydrate
Method: The objective of the study was to determine the ability of various Bifidobacterium species and strains to grow on galactooligosaccharides.
The growth of Lactobacillus and Bifidobacterium strains was evaluated in scratch MRS (Table 16) supplemented with 2% of a carbohydrate solution. The carbohydrates used in the experiments were: Glucose—Fisher; Lactose—Fisher; GOS1—95% GOS purity from Inalco SPA—Provided by Ritter Pharmaceuticals; GOS2—90% GOS purity from GTC—provided by Ritter Pharmaceuticals.
Carbohydrate stock solutions were filter sterilized and then added to either a scratch MRS formulation (Table 16), or a semisynthetic medium (Table 17).
Lactobacillus and Bifidobacterium cultures were propagated in MRS broth overnight, and then transferred once through the test medium. For growth experiments, cultures were inoculated into the MRS scratch medium containing one of the 4 carbohydrates to be examined Growth was monitored either: **automatically, using a FLUOStar OPTIMA microtiter plate reader to monitor the change in absorbance (A600) as a function of the time. The strains were incubated at 37 C aerobically for these experiments; or ** manually, using a standard spectrophotometer to monitor the change in OD600 nm over time, in 5 ml liquid culture tubes. These cultures were incubated anaerobically at 37° C. in a COY anaerobic chamber, flushed with anaerobic gas. […]

## OC[C@H]1O[C@@H](O[C@H]2[C@H](O)[C@@H](O)C(O)O[C@@H]2CO)[C@H](O)[C@@H](O)[C@H]1O (stereo partly shown) [lactose, Lactose]
  comparative growth on four carbohydrate sources (glucose, lactose, GOS1, GOS2): none of the Bifidobacterium strains used in these experiments grew
